Here are results for 11 compounds from US11440923B2, “Substituted macrocyclic indole derivatives” (Bayer Aktiengesellschaft, priority 2017, dated 2022).

The test system of data set [1] is SUDHL5 cells. Briefly: Induction of caspase-3/7 activity in SUDHL5 cells (Assay 4). In kind it is cell-based. An outline of the steps:
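Read-out: Caspase-Glo 3/7 luminescence (1 h, 37 °C) after cells, plated overnight, were treated with compounds for 3 h at 37 °C. Signal corrected for cell-free medium background and expressed relative to DMSO control mean.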

Data set [2] relates to SUDHL5 cells. In words: Induction of cytotoxicity in SUDHL5 cells (Assay 6). In kind it is cell-based. The following applies: 5 h, CellTiter-Glo, read-out: Cytotox SUDHL5 IC50 (median). In short, it runs like this: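 Cells plated overnight at 37 °C, then exposed to compound for 5 h in a humidified incubator at 37 °C. Viability read by CellTiter-Glo luminescence after 15 min shaking at room temperature; cell-free medium served as control.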
Background: In ATP-based viability assays light output follows the ATP content of the culture.

Data set [3] has as its target BCL-XL (Homo sapiens (Human), UniProt Q07817). Briefly: Protein-protein interaction assay BCL-XL/Bad BH3 peptide (BCL-XL assay, TR-FRET). In kind it is binding. The conditions noted are these: read-out: BCL-XL Assay IC50 (median). The protocol: Assay 2 Protein-Protein Interaction Assay: BCL-XL/Bad BH3 Peptide (BCL-XL Assay)
The dose-dependent inhibition by the compounds described in this invention of the interaction between BCL-XL and the BH3 domain of Bad (both human) was determined using a steady state binding competition assay with time-resolved fluorescence energy transfer (TR-FRET) readout. For that purpose BCL-XL (amino acids 1-212, C-terminal fused to a hexahistidine (6×His) tag (SEQ ID 3) and a synthetic Bad BH3-derived peptide of sequence Biotin-PEG2-PEG2-[…]-Nle-[…]-amide (SEQ ID 4) served as protein receptor and tracer ligand respectively. The recombinant BCL-XL protein (expressed in E. coli) was purchased from BPS Bioscience (San Diego, Calif., USA). The Bad BH3-derived peptide can be obtained from e.g. Biosyntan (Berlin, Germany).
In the assay 11 different concentrations of each compound (0.1 nM, 0.33 nM, 1.1 nM, 3.8 nM, 13 nM, 44 nM, 0.15 μM, 0.51 μM, 1.7 μM, 5.9 μM and 20 μM) were typically measured as duplicates in the same microtiter plate. For that, 100-fold concentrated DMSO solutions were prepared by serial dilutions (1:3.4) of a 2 mM stock solution in a clear, 384-well microtiter plate (Greiner Bio-One, Frickenhausen, Germany). From there, 50 nl were transferred in a dark test plate (Greiner Bio-One, Frickenhausen, Germany). The assay was initiated by addition of 2 μL of a 2,5-fold concentrated His-BCL-XL solution (usually for a 1 nM end concentration in 5 μL reaction volume) in aqueous assay buffer [50 mM Tris/HCl pH 7, 100 mM sodium chloride (NaCl), 50 mM potassium fluoride (KF), 0.005% Tween-20, 2 mM DTT, 0.1% bovine gamma globulin (BGG)] to the compounds in the assay plate. This was followed by a 10-minute incubation step at 22° C. for pre-equilibration of the putative complex between His-BCL-XL and the compounds. After that, 3 μL of a 1.67-fold concentrated solution (in assay buffer) consisting of Bad BH3-derived peptide (1 nM end concentration) and TR-FRET detection reagents [1.67 nM anti-His-Eu cryptate and 1.67 nM streptavidin-XL665 (both from Cisbio Bioassays, Codolet, France)], were added.
The mixture was incubated in the dark for one hour at 22° C. and then overnight at 4° C. The formation of BCL-XL/Bad complexes was determined by measuring the resonance energy transfer of the anti-His- Eu-cryptate antibody to the streptavidin-XL665 present in the reaction. For that purpose, the fluorescence emission at 620 nm and 665 nm after excitation at 330-350 nm was measured in a TR-FRET measuring instrument, for instance a Rubystar or a Pherastar (both from BMG Lab Technologies, Offenburg, Germany) or a Viewlux (Perkin-Elmer). The ratio of the emission at 665 nm and at 622 nm was used as indicator of the amount of BCL-XL/Bad complexes present.
The resulting data (ratio) were normalized, taking 0% inhibition as the mean value of control measurements (usually 32 data points) where all reagents were included. In this case 50 nl DMSO were used instead of compounds. […] IC50 values were determined by regression analysis based on a 4 parameter equation (minimum, maximum, IC50, Hill; Y=Max+(Min−Max)/(1+(X/IC50)^Hill) using the Screener Software (Genedata).
(In general: In TR-FRET formats the signal depends on donor and acceptor labels being close together.)

Data set [4] relates to HMC-1-8 cells. Briefly: Antiproliferation assay HMC-1-8 (Assay 7). In kind it is cell-based. An outline of the steps: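 Anti-proliferative effect was measured by CellTiter-Glo ATP luminescence after 72 h compound exposure at 37° C, following overnight plating. IC50s were derived using a parallel time-zero plate and DMSO-treated controls as reference points.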
[5] abbreviates: Homo sapiens, SU-DHL-5, 3 h, caspase-3/7 induction, 3 h; read-out: Caspase SUDHL5 EC50 (median).
Where [6] appears, read: 72 h, CellTiter-Glo; read-out: Antiproli HMC-1-8 IC50 median.
The mark [7] stands for this setting: caspase-3/7 induction, 3 h; read-out: Caspase SUDHL5 EC50 (median).
The mark [8] stands for this setting: read-out: Caspase SUDHL5 EC50 (median); caspase-3/7 induction, 3 h.

Structures can show the parent of a compound that is named as a salt. Where two headings read alike, the source gives them in different places. Some results are limits rather than exact numbers.

Sequence of BCL-XL (Q07817 1-212): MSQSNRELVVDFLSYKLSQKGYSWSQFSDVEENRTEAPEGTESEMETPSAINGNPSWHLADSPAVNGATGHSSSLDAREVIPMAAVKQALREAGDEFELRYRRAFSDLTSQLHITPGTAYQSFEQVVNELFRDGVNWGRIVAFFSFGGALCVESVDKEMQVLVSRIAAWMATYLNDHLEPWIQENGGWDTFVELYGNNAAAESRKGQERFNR

By EC50 is commonly meant the concentration at which the effect is half-maximal. As a reminder, the IC50 is the concentration that gives 50% inhibition. As to `Cc1c2c(nn1C)C(C)OCCCCn1c(C(=O)O)c(CCCOc3cccc4ccccc34)c3cccc-2c31` (racemic) [Example 1, (rac)-2,3,15-trimethyl-7-[3-(naphthalen-1-yloxy)propyl]-2,10,11,12,13,15-hexahydropyrazolo[4′,3′:9,10][1,6]oxazacycloundecino[8,7,6-hi]indole-8-carboxylic Acid (Mixture of Stereoisomers)], in data set [1] (setting [5]), the EC50 is 2300 nM. Further, the IC50 in data set [2] (Homo sapiens, SU-DHL-5, 5 h) was 2800 nM; in data set [3], greater than 20000 nM.

For the compound `Cc1c2c(nn1C)C(CCN1CCOCC1)OCCCCn1c(C(=O)O)c(CCCOc3cccc4ccccc34)c3ccc(F)c-2c31` (racemic) [Example 7, (rac)-4-fluoro-2,3-dimethyl-15-[2-(morpholin-4-yl)ethyl]-7-[3-(naphthalen-1-yloxy)propyl]-2,10,11,12,13,15-hexahydropyrazolo[4′,3′:9,10][1,6]oxazacycloundecino[8,7,6-hi]indole-8-carboxylic Acid], the EC50 in data set [1] (setting [5]) came to 200 nM. Also, the IC50 is 240 nM in data set [2] (Homo sapiens, SU-DHL-5, 5 h) and greater than 20000 nM in data set [3].

For `Cc1c2c(nn1C)C(CCN1CCOCC1)OCCCCn1c(C(=O)O)c(CCCOc3cccc4ccccc34)c3ccc(Cl)c-2c31` (racemic) [Example 13, (rac)-4-chloro-2,3-dimethyl-15-[2-(morpholin-4-yl)ethyl]-7-{3-[(naphthalen-1-yl)oxy]propyl}-2,10,11,12,13,15-hexahydropyrazolo[4′,3′:9,10][1,6]oxazacycloundecino[8,7,6-hi]indole-8-carboxylic Acid], the EC50 in data set [1] (setting [5]) stood at 77 nM. In addition, the IC50 in data set [2] (Homo sapiens, SU-DHL-5, 5 h) was 89 nM; in data set [3] it was greater than 20000 nM.

On to `Cc1c2c(nn1C)C(CCN1CCOCC1)OCCCCn1c(C(=O)O)c(CCCOc3cccc4cc(F)ccc34)c3ccc(F)c-2c31` (racemic) [Example 19, (rac)-4-fluoro-7-{3-[(6-fluoronaphthalen-1-yl)oxy]propyl}-2,3-dimethyl-15-[2-(morpholin-4-yl)ethyl]-2,10,11,12,13,15-hexahydropyrazolo[4′,3′:9,10][1,6]oxazacycloundecino[8,7,6-hi]indole-8-carboxylic Acid], for which the EC50 in data set [1] (setting [5]) came out at 73 nM. Moreover, the IC50 in data set [2] (Homo sapiens, SU-DHL-5, 5 h) is 82 nM; in data set [3], greater than 20000 nM.

Consider `CCc1c2c(nn1C)C1CCCCN1CCCCn1c(C(=O)O)c(CCCOc3cccc4ccccc34)c3ccc(Cl)c-2c31` (racemic) [Example 102, (rac)-18-chloro-1-ethyl-2-methyl-15-[3-(1-naphthyloxy)propyl]-2,3b,4,5,6,7,9,10,11,12-decahydropyrazolo[3′,4′:8,9]pyrido[1′,2′:6,7][1,6]diazacycloundecino[10,11,1-hi]indole-14-carboxylic Acid], for which the IC50 was determined as 7470 nM in data set [4] (72 h, CellTiter-Glo, read-out: Antiproli HMC-1-8 IC50 median) and 800 nM in data set [2] (Homo sapiens, SU-DHL-5, 5 h). For the same compound, the EC50 in data set [1] (setting [5]) was 770 nM.

For `CCc1c2c(nn1C)C(CCN1CC(F)(F)C1)OCCCCn1c(C(=O)O)c(CCCOc3cccc4cc(F)ccc34)c3ccc(Cl)c-2c31` (single isomer, unassigned; (+)) [Example 78, (+)-4-chloro-15-[2-(3,3-difluoroazetidin-1-yl)ethyl]-3-ethyl-7-{3-[(6-fluoronaphthalen-1-yl)oxy]propyl}-2-methyl-2,10,11,12,13,15-hexahydropyrazolo[4′,3′:9,10][1,6]oxazacycloundecino[8,7,6-hi]indole-8-carboxylic Acid—N-ethylethanamine Salt], the IC50 in data set [4] (setting [6]) is 563 nM; in data set [2], 14 nM. For the same compound, the EC50 in data set [1] (setting [7]) is 13 nM.

As to `CCc1c2c(nn1C)C1CCCN1CCCCn1c(C(=O)O)c(CCCOc3cccc4cc(F)ccc34)c3ccc(Cl)c-2c31` (single isomer, unassigned; (+)) [Example 105, (+)-17-chloro-1-ethyl-14-{3-[(6-fluoronaphthalen-1-yl)oxy]propyl}-2-methyl-3b,4,5,6,8,9,10,11-octahydro-2H-pyrazolo[3′,4′:8,9]pyrrolo[1′,2′:6,7][1,6]diazacycloundecino[10,11,1-hi]indole-13-carboxylic Acid], the IC50 in data set [4] (setting [6]) is 2660 nM; in data set [2], 370 nM. Also, the EC50 in data set [1] (setting [7]) worked out at 330 nM.

Consider `CCc1c2c(nn1C)C(CCN1CCOCC1)OCCCCn1c(C(=O)O)c(CCCOc3cccc4ccccc34)c3ccc(F)c-2c31` (single isomer, unassigned; enantiomer 1) [Example 11, 3-ethyl-4-fluoro-2-methyl-15-[2-(morpholin-4-yl)ethyl]-7-{3-[(naphthalen-1-yl)oxy]propyl}-2,10,11,12,13,15-hexahydropyrazolo[4′,3′:9,10][1,6]oxazacycloundecino[8,7,6-hi]indole-8-carboxylic Acid—N-ethylethanamine Salt (Enantiomer 1)], for which the IC50 was found to be 1030 nM in data set [4] (72 h, read-out: Antiproli HMC-1-8 IC50 median, 72 h, CellTiter-Glo) and 95 nM in data set [2]. Besides, in data set [1] (setting [8]), the EC50 came to 97 nM.

On to `CCc1c2c(nn1C)C(CCC1CCOCC1)OCCCCn1c(C(=O)O)c(CCCOc3cccc4cc(F)ccc34)c3ccc(Cl)c-2c31` (single isomer, unassigned; enantiomer 1) [Example 61, 4-chloro-3-ethyl-7-{3-[(6-fluoronaphthalen-1-yl)oxy]propyl}-2-methyl-15-[2-(oxan-4-yl)ethyl]-2,10,11,12,13,15-hexahydropyrazolo[4′,3′:9,10][1,6]oxazacycloundecino[8,7,6-hi]indole-8-carboxylic Acid (Enantiomer 1)], for which the figures for the IC50 in data set [4] (setting [6]) and in data set [2] were 186 nM and 38 nM, respectively. In addition, the EC50 in data set [1] (setting [7]) came out at 31 nM.

For `CCc1c2c(nn1C)C(CCC1CCOCC1)OCCCCn1c(C(=O)O)c(CCCOc3cccc4cc(F)ccc34)c3ccc(Cl)c-2c31` (single isomer, unassigned; enantiomer 1) [Example 63, (+)-4-chloro-3-ethyl-7-{3-[(6-fluoronaphthalen-1-yl)oxy]propyl}-2-methyl-15-[2-(oxan-4-yl)ethyl]-2,10,11,12,13,15-hexahydropyrazolo[4′,3′:9,10][1,6]oxazacycloundecino[8,7,6-hi]indole-8-carboxylic Acid—N-ethylethanamine Salt (Enantiomer 1)], the IC50 came out at 351 nM in data set [4] (read-out: Antiproli HMC-1-8 IC50 median; 72 h, CellTiter-Glo) and 49 nM in data set [2]. For the same compound, in data set [1] (setting [8]), the EC50 was found to be 35 nM.

On to `CCc1c2c(nn1C)C(CCC(C)(C)O)OCCCCn1c(C(=O)O)c(CCCOc3cccc4cc(F)ccc34)c3ccc(Cl)c-2c31` (single isomer, unassigned; enantiomer 1) [Example 75, (+)-4-chloro-3-ethyl-7-{3-[(6-fluoronaphthalen-1-yl)oxy]propyl}-15-(3-hydroxy-3-methylbutyl)-2-methyl-2,10,11,12,13,15-hexahydropyrazolo[4′,3′:9,10][1,6]oxazacycloundecino[8,7,6-hi]indole-8-carboxylic Acid—N-ethylethanamine Salt (Enantiomer 1)], for which the IC50 was 159 nM in data set [4] (setting [6]) and 12 nM in data set [2]. Further, in data set [1] (setting [7]), the EC50 stood at 9.7 nM.
